Read-outs that look alike come from different tables or passages of the source.
Target: Recombinant human cathepsin S (CatS) (Homo sapiens, UniProt P25774)
Assay: Recombinant human cathepsin S (CatS) inhibition assay, fluorogenic substrate Z-Valine-Valine-Arginine-AMC;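 note: Baculovirus-expressed CatS in pH 5.0 sodium acetate buffer with DTT and NaCl, fluorescence read each minute over 20 min, inhibition derived from rate slope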

Chain of Recombinant human cathepsin S (CatS) (P25774 115-331): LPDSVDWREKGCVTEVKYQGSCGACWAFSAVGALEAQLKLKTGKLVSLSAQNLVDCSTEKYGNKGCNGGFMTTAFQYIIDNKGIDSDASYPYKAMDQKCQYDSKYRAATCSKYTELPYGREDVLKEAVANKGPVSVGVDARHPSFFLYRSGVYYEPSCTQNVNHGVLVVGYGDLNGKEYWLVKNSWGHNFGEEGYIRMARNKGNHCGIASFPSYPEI

IC50 [nM]	Compound	IC50 (CatS IC50) [nM]
20	CS(=O)(=O)N1CCc2c(c(-c3ccc(Cl)c(C#Cc4ccc(CN[C@@H](CO)c5ccccc5)cc4)c3)nn2CCCN2CCC(N3CCCC3=O)CC2)C1 [Example 352, 1-(1-{3-[3-(4-Chloro-3-{[4-({[(1R)-2-hydroxy-1-phenylethyl]amino}methyl)phenyl]ethynyl}phenyl)-5-(methylsulfonyl)-4,5,6,7-tetrahydro-1H-pyrazolo[4,3-c]pyridin-1-yl]propyl}piperidin-4-yl)pyrrolidin-2-one]	
	CC(=O)N1CCN(CCCn2nc(-c3ccc(Cl)c(C#Cc4ccc(CNCc5ccc(Cl)cc5)cc4)c3)c3c2CCN(S(C)(=O)=O)C3)CC1 [Example 353, 1-{4-[(5-{1-[3-(4-Acetylpiperazin-1-yl)propyl]-5-(methylsulfonyl)-4,5,6,7-tetrahydro-1H-pyrazolo[4,3-c]pyridin-3-yl}-2-chlorophenyl)ethynyl]phenyl}-N-[(4-chlorophenyl)methyl]methanamine]	150
	CN1CCN(CCCn2nc(-c3ccc(Cl)c(C#Cc4ccc(CNCc5ccc(Cl)cc5)cc4)c3)c3c2CCN(S(C)(=O)=O)C3)CC1 [Example 354, 1-{4-[(2-Chloro-5-{1-[3-(4-methylpiperazin-1-yl)propyl]-5-(methylsulfonyl)-4,5,6,7-tetrahydro-1H-pyrazolo[4,3-c]pyridin-3-yl}phenyl)ethynyl]phenyl}-N-[(4-chlorophenyl)methyl]methanamine]	360
	CC1(C)CCN(CCCn2nc(-c3ccc(Cl)c(C#Cc4ccc(CNCc5ccc(Cl)cc5)cc4)c3)c3c2CCN(S(C)(=O)=O)C3)CC1 [Example 355, 1-{4-[(2-Chloro-5-{1-[3-(4,4-dimethylpiperidin-1-yl)propyl]-5-(methylsulfonyl)-4,5,6,7-tetrahydro-1H-pyrazolo[4,3-c]pyridin-3-yl}phenyl)ethynyl]phenyl}-N-[(4-chlorophenyl)methyl]methanamine]	110
20	CS(=O)(=O)N1CCc2c(c(-c3ccc(Cl)c(C#Cc4ccc(CNCc5ccc(Cl)cc5)cc4)c3)nn2CCCN2CCC(NC(=O)CO)CC2)C1 [Example 356, N-(1-{3-[3-(4-Chloro-3-{[4-({[(4-chlorophenyl)methyl]amino}methyl)phenyl]ethynyl}phenyl)-5-(methylsulfonyl)-4,5,6,7-tetrahydro-1H-pyrazolo[4,3-c]pyridin-1-yl]propyl}piperidin-4-yl)-2-hydroxyacetamide]	
	CS(=O)(=O)N1CCc2c(c(-c3ccc(Cl)c(C#Cc4ccc(CNCc5ccc(Cl)cc5)cc4)c3)nn2CCCN2CCC(F)(F)CC2)C1 [Example 357, 1-{4-[(2-Chloro-5-{1-[3-(4,4-difluoropiperidin-1-yl)propyl]-5-(methylsulfonyl)-4,5,6,7-tetrahydro-1H-pyrazolo[4,3-c]pyridin-3-yl}phenyl)ethynyl]phenyl}-N-[(4-chlorophenyl)methyl]methanamine]	210
100	CS(=O)(=O)N1CCc2c(c(-c3ccc(Cl)c(C#Cc4ccc(CNCc5ccc(Cl)cc5)cc4)c3)nn2CCCN2CCC(F)CC2)C1 [Example 358, 1-{4-[(2-Chloro-5-{1-[3-(4-fluoropiperidin-1-yl)propyl]-5-(methylsulfonyl)-4,5,6,7-tetrahydro-1H-pyrazolo[4,3-c]pyridin-3-yl}phenyl)ethynyl]phenyl}-N-[(4-chlorophenyl)methyl]methanamine]	
	CS(=O)(=O)NC1CCN(CCCn2nc(-c3ccc(Cl)c(C#Cc4ccc(CNCc5ccc(Cl)cc5)cc4)c3)c3c2CCN(S(C)(=O)=O)C3)CC1 [Example 359, N-(1-{3-[3-(4-Chloro-3-{[4-({[(4-chlorophenyl)methyl]amino}methyl)phenyl]ethynyl}phenyl)-5-(methylsulfonyl)-4,5,6,7-tetrahydro-1H-pyrazolo[4,3-c]pyridin-1-yl]propyl}piperidin-4-yl)methanesulfonamide]	80
170	CS(=O)(=O)N1CCc2c(c(-c3ccc(Cl)c(C#Cc4ccc5c(c4)CNCC5)c3)nn2CCCN2CCOCC2)C1 [Example 360, 7-({2-Chloro-5-[5-(methylsulfonyl)-1-(3-morpholin-4-ylpropyl)-4,5,6,7-tetrahydro-1H-pyrazolo[4,3-c]pyridin-3-yl]phenyl}ethynyl)-1,2,3,4-tetrahydroisoquinoline]	
170	CS(=O)(=O)N1CCc2c(c(-c3ccc(Cl)c(C#Cc4ccc(CNCc5ccc(Cl)cc5)cc4)c3)nn2CC(O)CN2CCCCC2)C1 (stereo not shown) [Example 361, 1-[3-(4-Chloro-3-{[4-({[(4-chlorophenyl)methyl]amino}methyl)phenyl]ethynyl}phenyl)-5-(methylsulfonyl)-4,5,6,7-tetrahydro-1H-pyrazolo[4,3-c]pyridin-1-yl]-3-piperidin-1-ylpropan-2-ol]	
50	CC(=O)NC1CCN(CC(O)Cn2nc(-c3ccc(Cl)c(C#Cc4ccc(CNCc5ccc(Cl)cc5)cc4)c3)c3c2CCN(S(C)(=O)=O)C3)CC1 (stereo not shown) [Example 362, N-(1-{3-[3-(4-Chloro-3-{[4-({[(4-chlorophenyl)methyl]amino}methyl)phenyl]ethynyl}phenyl)-5-(methylsulfonyl)-4,5,6,7-tetrahydro-1H-pyrazolo[4,3-c]pyridin-1-yl]-2-hydroxypropyl}piperidin-4-yl)acetamide]	
90	CS(=O)(=O)N1CCc2c(c(-c3ccc(Cl)c(C#Cc4ccc(CNCc5ccc(Cl)cc5)cc4)c3)nn2CC(O)CN2CCC(C(N)=O)CC2)C1 (stereo not shown) [Example 363, 1-{3-[3-(4-Chloro-3-{[4-({[(4-chlorophenyl)methyl]amino}methyl)phenyl]ethynyl}phenyl)-5-(methylsulfonyl)-4,5,6,7-tetrahydro-1H-pyrazolo[4,3-c]pyridin-1-yl]-2-hydroxypropyl}piperidine-4-carboxamide]	
	CS(=O)(=O)N1CCc2c(c(-c3ccc(Cl)c(C#Cc4ccc5c(c4)CN(C(=O)C(F)(F)F)C5)c3)nn2CCCN2CCOCC2)C1 [Example 364, 3-(4-Chloro-3-{[2-(trifluoroacetyl)-2,3-dihydro-1H-isoindol-5-yl]ethynyl}phenyl)-5-(methylsulfonyl)-1-(3-morpholin-4-ylpropyl)-4,5,6,7-tetrahydro-1H-pyrazolo[4,3-c]pyridine]	170
280	CS(=O)(=O)N1CCc2c(c(-c3ccc(Cl)c(C#Cc4ccc5c(c4)CCNC5)c3)nn2CCCN2CCOCC2)C1 [Example 365, 6-({2-Chloro-5-[5-(methylsulfonyl)-1-(3-morpholin-4-ylpropyl)-4,5,6,7-tetrahydro-1H-pyrazolo[4,3-c]pyridin-3-yl]phenyl}ethynyl)-1,2,3,4-tetrahydroisoquinoline]	
680	CS(=O)(=O)N1CCc2c(c(-c3ccc(Cl)c(C#Cc4cccc5c4CNCC5)c3)nn2CCCN2CCOCC2)C1 [Example 366, 8-({2-Chloro-5-[5-(methylsulfonyl)-1-(3-morpholin-4-ylpropyl)-4,5,6,7-tetrahydro-1H-pyrazolo[4,3-c]pyridin-3-yl]phenyl}ethynyl)-1,2,3,4-tetrahydroisoquinoline]	
	CC(C)(C)OC(=O)N1CCN(CCCn2nc(-c3ccc(Cl)c(C#Cc4ccc(CNCc5ccc(Cl)cc5)cc4)c3)c3c2CCN(S(C)(=O)=O)C3)CC1 [Example 367, 1,1-Dimethylethyl 4-{3-[3-(4-chloro-3-{[4-({[(4-chlorophenyl)methyl]amino}methyl)phenyl]ethynyl}phenyl)-5-(methylsulfonyl)-4,5,6,7-tetrahydro-1H-pyrazolo[4,3-c]pyridin-1-yl]propyl}piperazine-1-carboxylate]	90
	CS(=O)(=O)N1CCc2c(c(-c3ccc(Cl)c(C#Cc4ccc(CNCc5ccc(Cl)cc5)cc4)c3)nn2CCCN2CCNCC2)C1 [Example 368, 1-[4-({2-Chloro-5-[5-(methylsulfonyl)-1-(3-piperazin-1-ylpropyl)-4,5,6,7-tetrahydro-1H-pyrazolo[4,3-c]pyridin-3-yl]phenyl}ethynyl)phenyl]-N-[(4-chlorophenyl)methyl]methanamine]	330
410	CC(=O)NC1CCN(CCCn2nc(-c3ccc(Cl)c(C#Cc4ccc(CNCc5ccc(Cl)cc5)cc4)c3)c3c2CCNC3)CC1 [Example 369, N-(1-{3-[3-(4-Chloro-3-{[4-({[(4-chlorophenyl)methyl]amino}methyl)phenyl]ethynyl}phenyl)-4,5,6,7-tetrahydro-1H-pyrazolo[4,3-c]pyridin-1-yl]propyl}piperidin-4-yl)acetamide]	
720	CC(C)(C)OC(=O)N1CCc2ccc(C#Cc3cc(-c4nn(CCCN5CCOCC5)c5c4CN(S(C)(=O)=O)CC5)ccc3Cl)cc2C1 [Example 370, 1,1-Dimethylethyl 7-({2-chloro-5-[5-(methylsulfonyl)-1-(3-morpholin-4-ylpropyl)-4,5,6,7-tetrahydro-1H-pyrazolo[4,3-c]pyridin-3-yl]phenyl}ethynyl)-3,4-dihydroisoquinoline-2(1H)-carboxylate]	
380	CC(C)(C)OC(=O)N1CCc2ccc(C#Cc3cc(-c4nn(CC(O)CN5CCCCC5)c5c4CN(S(C)(=O)=O)CC5)ccc3Cl)cc2C1 (stereo not shown) [Example 371, 1,1-Dimethylethyl 7-({2-chloro-5-[1-(2-hydroxy-3-piperidin-1-ylpropyl)-5-(methylsulfonyl)-4,5,6,7-tetrahydro-1H-pyrazolo[4,3-c]pyridin-3-yl]phenyl}ethynyl)-3,4-dihydroisoquinoline-2(1H)-carboxylate]	
	CC(C)(C)C1CCN(CCCn2nc(-c3ccc(Cl)c(C#Cc4ccc(CNCc5ccc(Cl)cc5)cc4)c3)c3c2CCN(S(C)(=O)=O)C3)CC1 [Example 372, 1-[4-({2-Chloro-5-[1-{3-[4-(1,1-dimethylethyl)piperidin-1-yl]propyl}-5-(methylsulfonyl)-4,5,6,7-tetrahydro-1H-pyrazolo[4,3-c]pyridin-3-yl]phenyl}ethynyl)phenyl]-N-[(4-chlorophenyl)methyl]methanamine]	60
170	CC(C)(C)OC(=O)N1CCc2ccc(C#Cc3cc(-c4nn(CC(O)CN5CCC(C(N)=O)CC5)c5c4CN(S(C)(=O)=O)CC5)ccc3Cl)cc2C1 (stereo not shown) [Example 373, 1,1-Dimethylethyl 7-({5-[1-{3-[4-(aminocarbonyl)piperidin-1-yl]-2-hydroxypropyl}-5-(methylsulfonyl)-4,5,6,7-tetrahydro-1H-pyrazolo[4,3-c]pyridin-3-yl]-2-chlorophenyl}ethynyl)-3,4-dihydroisoquinoline-2(1H)-carboxylate]	
